In BindingDB's records for doi:10.1016/j.bmc.2010.03.023 (Swedish University Agricultural Sciences, 2010):

Experiments:
[1] = target: T1, Thymidine kinase (Ureaplasma parvum serovar 3 (strain ATCC 700970), UniProt Q9PPP5); test: Inhibition of Ureaplasma parvum thymidine kinase by liquid scintillation counting
T1 sequence (Q9PPP5 whole entry): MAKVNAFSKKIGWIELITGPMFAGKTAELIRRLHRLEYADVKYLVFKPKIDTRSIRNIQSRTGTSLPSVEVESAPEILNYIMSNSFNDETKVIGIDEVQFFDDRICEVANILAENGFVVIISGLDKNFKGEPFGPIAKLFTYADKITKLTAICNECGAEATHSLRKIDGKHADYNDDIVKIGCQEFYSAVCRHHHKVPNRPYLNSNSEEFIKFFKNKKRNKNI

[2] = target: T2, Thymidine kinase, cytosolic (Homo sapiens, UniProt P04183); test: Inhibition of human TK1 by liquid scintillation counting
T2 sequence (P04183 whole entry): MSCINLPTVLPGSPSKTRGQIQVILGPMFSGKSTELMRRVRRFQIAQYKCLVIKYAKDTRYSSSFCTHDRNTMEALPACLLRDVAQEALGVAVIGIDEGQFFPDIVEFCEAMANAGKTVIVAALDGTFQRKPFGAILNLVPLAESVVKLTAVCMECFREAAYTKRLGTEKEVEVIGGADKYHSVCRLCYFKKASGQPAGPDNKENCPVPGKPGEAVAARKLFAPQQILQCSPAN

| IC50 [1] [µM] | IC50 [2] [µM] | SMILES |
| --- | --- | --- |
| 120 |  | Cc1cn([C@H]2C[C@H](n3cc(CCc4ccccc4)nn3)[C@@H](CO)O2)c(=O)[nH]c1=O [3'-(4-(2-Phenyl-ethyl)-1,2,3-triazole-1-yl)-2'-deoxythymidine] |
| 318 | 114 | Cc1cn([C@H]2C[C@H](n3cc(C(C)(C)C)nn3)[C@@H](CO)O2)c(=O)[nH]c1=O [3'-(4-tert-Butyl-1,2,3-triazol-1-yl)-3'-deoxythymidine] |
| 200 |  | Cc1cn([C@H]2C[C@H](n3cc(-c4ccccc4)nn3)[C@@H](CO)O2)c(=O)[nH]c1=O [3'-Deoxy-3'-(4-phenyl-1,2,3-triazol-1-yl)-beta-D-thymidine] |
| 211 |  | Cc1cn([C@H]2C[C@H](n3cc(-c4ccccn4)nn3)[C@@H](CO)O2)c(=O)[nH]c1=O [3'-Deoxy-3'-(4-pyridin-2-yl-1,2,3-triazol-1-yl)-beta-D-thymidine] |
